Experimental data: US20180258381A1, “BIO-LAMINA BIOREACTORS AND METHODS OF MAKING AND USING THE SAME” (Oregon State University, priority 2015, published 2018)

How the values were obtained:
[1] = tested on: MDH; assay: MDH activity reactivity assay (methanol SOUR), inhibitor trials; format: cell-based, M. trichosporium OB3b; conditions: for selective inhibition of MDH activity versus MMO: salts tested on MMO and MDH activity
Protocol: The procedure for measuring methanol dehydrogenase (MDH) activity by measuring the specific oxygen uptake rate (SOUR) has been tested on M. trichosporium OB3b cultures grown both in batch and in the chemostat. M. trichosporium OB3b cells were harvested using centrifugation. The supernatant was poured off and the cells were re-suspended in fresh media lacking a carbon source. Phosphate buffer solution was added to a sample chamber in which dissolved oxygen (DO) was measure with a DO probe. When the DO of the solution stabilized, the re-suspended cells were added to the sample chamber to measure baseline oxygen uptake by the cells without a carbon food source present. Methanol was then added to test for MDH activity. The difference in the oxygen uptake rates illustrates the MDH activity of the culture.
(§1) Metabolic activity test methods have been developed to monitor specific activities in M. trichosporium OB3b cultures. A naphthalene oxidation assay was used to determine if sMMO is being expressed. An ethylene to ethylene oxide reaction assay and a methane oxidation assay was used to quantify MMO activity, and a methanol oxidation assay was used to estimate MDH activity. Concurrent batch metabolic tests can be conducted to investigate methanol inhibition of methane oxidation, cyclopropane to cyclopropanol conversion and concurrent/subsequent cyclopropanol inhibition of MDH activity, the effect of cyclopropanol inhibition on growth yield, and the effects of high oxygen concentration.
(§2) The effect of salts NaCl, NH4Cl and CaCl2 on MMO and MDH activity was evaluated using the reactivity assays described above.

[2] = target: T1, sMMO (Methylosinus trichosporium, UniProt P27353); assay: sMMO activity reactivity assay, inhibitor trials; format: cell-based, M. trichosporium OB3b
T1 construct: endogenous in cells; host or cells: M. trichosporium OB3b whole cells, grown without copper (chemostat or batch)
T1 sequence (P27353 1-526): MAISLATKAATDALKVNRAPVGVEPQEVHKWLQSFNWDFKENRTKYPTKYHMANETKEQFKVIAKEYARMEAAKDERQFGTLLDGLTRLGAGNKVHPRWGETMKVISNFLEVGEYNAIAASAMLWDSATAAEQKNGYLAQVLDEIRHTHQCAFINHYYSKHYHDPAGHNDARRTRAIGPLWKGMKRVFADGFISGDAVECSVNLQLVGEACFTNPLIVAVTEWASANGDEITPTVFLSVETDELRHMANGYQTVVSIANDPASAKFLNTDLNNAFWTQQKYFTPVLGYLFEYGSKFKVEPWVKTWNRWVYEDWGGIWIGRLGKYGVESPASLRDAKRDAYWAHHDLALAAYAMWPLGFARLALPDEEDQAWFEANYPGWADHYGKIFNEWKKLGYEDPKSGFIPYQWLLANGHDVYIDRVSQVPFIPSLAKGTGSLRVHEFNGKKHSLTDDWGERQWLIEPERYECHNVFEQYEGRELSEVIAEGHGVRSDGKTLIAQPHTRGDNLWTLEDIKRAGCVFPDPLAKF
T1 sequence (P27354 1-394 partner): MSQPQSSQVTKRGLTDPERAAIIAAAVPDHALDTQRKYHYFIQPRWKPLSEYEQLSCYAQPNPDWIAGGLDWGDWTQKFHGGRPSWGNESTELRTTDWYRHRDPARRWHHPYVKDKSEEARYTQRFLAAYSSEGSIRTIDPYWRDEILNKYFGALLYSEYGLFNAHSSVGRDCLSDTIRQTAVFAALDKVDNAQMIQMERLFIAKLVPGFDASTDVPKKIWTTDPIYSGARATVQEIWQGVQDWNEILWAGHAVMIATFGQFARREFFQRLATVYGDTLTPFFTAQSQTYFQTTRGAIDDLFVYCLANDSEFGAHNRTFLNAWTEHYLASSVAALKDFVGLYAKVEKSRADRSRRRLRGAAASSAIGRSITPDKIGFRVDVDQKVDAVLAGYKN
T1 sequence (P27355 1-169 partner): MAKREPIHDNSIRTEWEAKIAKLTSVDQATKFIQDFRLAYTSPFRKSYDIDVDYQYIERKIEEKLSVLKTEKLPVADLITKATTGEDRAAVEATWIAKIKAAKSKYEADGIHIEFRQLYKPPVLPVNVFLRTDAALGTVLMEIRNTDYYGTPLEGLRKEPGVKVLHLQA
Protocol: M. trichosporium OB3b cultures were grown under plus copper (pMMO expressed) or minus copper (sMMO expressed) conditions using chemostat or batch culture conditions. Aliquots of culture (˜100 ml) were harvested by centrifugation, and concentrated 50-fold in fresh media. Pelleting cells in this manner ensured that all residual methane was eliminated, increased ease of measuring protein, and made activity assays as brief as possible. Assays were performed in 30 ml crimp cap reaction vials with 4 ml of media (either +Cu or −Cu) with 10 mM sodium formate. To initiate assays, 100 µl of the 50× cell suspension was added to reaction vials with a plastic syringe. Short descriptions of activity assays follow.
Due to the relative insolubility of methane, large volumes should be added to reaction vials to achieve concentrations in the aqueous phase (Cw) above the concentration of methane where the velocity of methane consumption (V) is equal to 0.5Vmax for minus copper grown M. trichosporium OB3b cultures. These large methane additions make direct measurement of methane consumption in short-term assays unlikely, therefore the accumulation of ethylene oxide (ETO) upon the oxidation of ethylene (ETH) was used as a surrogate measurement. Reaction vials were prepared as described above and 5 ml of ETH added as an overpressure. The appearance of ETO was monitored by gas chromatography evaluation of Cw over the course of 30 minutes (FIG. 39A). Killed cells (boiled) served as a negative control. pMMO is a copper enzyme and can be inhibited by allylthiourea (ATU), while sMMO (an iron enzyme) is insensitive to inhibition by ATU. The ETH to ETO assay described above was repeated with 10 μM ATU to discriminate between sMMO and pMMO activity.
as §1, with “concentration. Once stable operation and baseline metabolic monitoring in the chemostat have been achieved, inhibitor can be added to evaluate chemostat operation under methanol-producing conditions.” for “concentration.”
MMO activity has been measured via both methane (CH4) consumption and ethylene oxide (ETO) production upon oxidation of the non-growth substrate ethylene (ETH, Table 4). While ETO production matches methane consumption for pMMO, ETH is not as good a substrate for sMMO as methane. Nevertheless, the ETO accumulation assay is quick (<30 min) and can be used to screen for activity before starting a larger experiment.
as §2

With `[Cl-].[Na+]` [NaCl] the “selective inhibition of MDH activity versus MMO” value (“selective inhibition” below) [1] was “None of the salts were effective”.

`Cl.N` [NH4Cl] was tested, and the “selective inhibition” value [1] was “None of the salts were effective”.

For `[Ca+2].[Cl-].[Cl-]` [CaCl2], the “Fraction of Activity Remaining, sMMO” value ([2]; CaCl2 10 mmol) was 0.41, the “Fraction of Activity Remaining, sMMO” value ([2]; CaCl2 20 mmol) was 0.29 and the “Fraction of Activity Remaining, sMMO” value ([2]; CaCl2 40 mmol) was 0.20. For the same compound, the “Fraction of Activity Remaining, MDH” value ([1]; CaCl2 10 mmol) was 0.71, the “Fraction of Activity Remaining, MDH” value ([1]; CaCl2 40 mmol) was 0.45 and the “Fraction of Activity Remaining, MDH” value ([1]; CaCl2 66 mmol) was 0.35. For the same compound, the “selective inhibition” value [1] was “None of the salts were effective”.
